Experimental data reported in patent US20260184708A1, “PYRIDAZINONES AND METHODS OF USE THEREOF” (GFB (ABC), LLC, priority 2017, published 2026).
Where two headings read alike, the source gives them in different places.

Target: T1, TRPC5 (Homo sapiens, UniProt Q9UL62)
T1 construct: expressed in transfected cells; host or cells: HEK 293
T1 sequence (Q9UL62 1-973): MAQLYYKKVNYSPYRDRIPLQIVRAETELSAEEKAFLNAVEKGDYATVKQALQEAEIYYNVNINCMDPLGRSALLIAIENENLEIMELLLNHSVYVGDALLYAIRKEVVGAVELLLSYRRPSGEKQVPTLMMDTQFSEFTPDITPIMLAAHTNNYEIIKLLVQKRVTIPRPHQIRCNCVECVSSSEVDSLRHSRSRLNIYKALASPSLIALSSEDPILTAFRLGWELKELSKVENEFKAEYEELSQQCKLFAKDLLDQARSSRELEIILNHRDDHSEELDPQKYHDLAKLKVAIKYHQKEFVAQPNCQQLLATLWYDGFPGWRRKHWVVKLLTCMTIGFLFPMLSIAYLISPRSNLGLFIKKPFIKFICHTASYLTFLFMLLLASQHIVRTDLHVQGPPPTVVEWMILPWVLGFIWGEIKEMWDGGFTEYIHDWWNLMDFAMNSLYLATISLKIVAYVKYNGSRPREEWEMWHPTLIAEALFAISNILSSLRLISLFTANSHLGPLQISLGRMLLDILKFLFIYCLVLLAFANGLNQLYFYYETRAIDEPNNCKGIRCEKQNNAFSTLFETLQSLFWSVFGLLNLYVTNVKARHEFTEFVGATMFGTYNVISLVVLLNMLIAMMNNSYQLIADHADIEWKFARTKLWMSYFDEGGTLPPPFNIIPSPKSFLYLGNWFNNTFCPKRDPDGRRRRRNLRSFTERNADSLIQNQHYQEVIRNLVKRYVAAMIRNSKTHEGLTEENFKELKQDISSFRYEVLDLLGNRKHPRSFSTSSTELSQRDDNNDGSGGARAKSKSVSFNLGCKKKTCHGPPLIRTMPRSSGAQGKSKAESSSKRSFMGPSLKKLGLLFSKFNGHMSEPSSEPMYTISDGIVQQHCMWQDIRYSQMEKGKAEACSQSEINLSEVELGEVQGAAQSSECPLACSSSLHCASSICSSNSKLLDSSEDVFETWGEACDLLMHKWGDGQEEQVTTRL
Assay: TRPC5 automated patch clamp assay (Qpatch), current block after rosiglitazone stimulation
Type: cell-based
Details: Table 5, HEK293 cells overexpressing TRPC5, rosiglitazone stimulation
Method: HEK 293 cells expressing human TRPC5 were harvested, re-suspended in serum free medium, and added to the automated platform and used within 2-3 hours. Internal and external physiological solutions were freshly prepared prior to the assay. The external solution contained: 145 mM NaCl, 4 mM KCl, 2 mM CaCl2), 1 mM MgCl2, 10 mM HEPES, 10 mM glucose, pH 7.4 with NaOH and 300 mOsm/L. The internal solution contained 120 mM L-aspartic acid, 120 mM CsOH·H2O, 20 mM CsCl, 2 mM MgCl2, 8.8 mM CaCl2), 10 mM EGTA, 10 mM HEPES, 10 mM Glucose, 0.1 mM GTP and 2 mM Na2ATP; pH 7.2 with CsOH and 290 mOsm/L. The free internal Ca2+ concentration was buffered to 1 μM.
The automated electrophysiological platform QPatch 16 from Sophion (Denmark) was used to carry out the compounds profiling. The series resistance and quality of seals were continuously monitored during the experiments. Data was analyzed using Sophion QPatch assay software 5.6 (Odense). IC50 values were calculated using a least squares regression algorithm (Hill equation).
To monitor the ion currents, a voltage ramp from −100 mV to +100 mV, over 300 ms, was applied every 10 seconds, from a holding potential of −60 mV.
After recording for a minimum of 60 seconds control period, Rosiglitazone (30 uM), was applied to activate the channel.

[1] = 80 mV, read-out: TRPC5_QP_ XC50_80
[2] = 100 mV, read-out: TRPC5_QP_ XC50_100

Row | Structure (SMILES) | IC50 [1] [µM] | IC50 [2] [µM]
1 | Cc1cc(F)ccc1CN1CCN(c2cc(-c3ccccc3)n[nH]c2=O)CC1 | 1 to 5 | 
2 | C=Cc1n[nH]c(=O)c(N2CCN(Cc3ccc(F)cc3C)CC2)c1Cl | 10 to 500 | 10 to 500
3 | Cc1cc(N2CCN(Cc3ccc(F)cc3C)C(=O)C2)c(=O)[nH]n1 | 10 to 500 | 10 to 500
4 | Cc1cc(F)ccc1CN1CCN(c2c(Cl)c(-c3ccccc3)n[nH]c2=O)CC1 | 10 to 500 | 10 to 500
5 | Cc1cc(F)ccc1CN1CCN(c2c(Cl)c(Br)n[nH]c2=O)CC1 | 10 to 500 | 10 to 500
6 | Cc1n[nH]c(=O)c(N2CCN(Cc3ccc(F)cc3C(F)(F)F)C(=O)C2)c1Cl | 10 to 500 | 10 to 500
7 | Cc1n[nH]c(=O)c(N2CCN(Cc3ccccc3C(F)(F)F)C(=O)C2)c1Cl | 5 to 10 | 5 to 10
8 | Cc1n[nH]c(=O)c(N2CCN(Cc3ccccc3OC(F)(F)F)C(=O)C2)c1Cl | 5 to 10 | 5 to 10
9 | Cc1ccccc1N1CCN(c2cn[nH]c(=O)c2Cl)CC1 | 1 to 5 | 1 to 5
10 | COc1cc(C(F)(F)F)ccc1CN1CCN(c2cn[nH]c(=O)c2Cl)CC1=O | 1 to 5 | 5 to 10
11 | O=C1CN(c2cn[nH]c(=O)c2Cl)CCN1Cc1ccc(OC(F)(F)F)cc1 | 1 to 5 | 1 to 5
12 | Cn1nc(CN2CCN(c3cn[nH]c(=O)c3Cl)CC2)c2ccccc21 | 5 to 10 | 10 to 500
13 | O=c1[nH]ncc(N2CCN(Cc3ccc(F)cc3C(F)(F)F)CC2)c1Cl | 1 to 5 | 1 to 5
14 | CCn1nc(CN2CCN(c3cn[nH]c(=O)c3Cl)CC2)c2ccccc21 | 10 to 500 | 10 to 500
15 | O=C1CN(c2cn[nH]c(=O)c2Cl)CCN1Cc1ccc(OC(F)(F)F)cc1F | 5 to 10 | 5 to 10
16 | O=C1CN(c2cn[nH]c(=O)c2Cl)CCN1Cc1ccc(F)cc1C(F)(F)F | 1e-05 to 1 | 1e-05 to 1

Row | Structure (SMILES) | IC50 [1] [µM] | IC50 [2] [µM]
17 | Cc1ccccc1CN1CC2(CCN(c3cn[nH]c(=O)c3Cl)CC2)C1 | 1 to 5 | 1 to 5
18 | O=C1CN(c2cn[nH]c(=O)c2Cl)CCN1Cc1cccc2cn[nH]c12 | 10 to 500 | 10 to 500
19 | Cc1ccccc1CN1CCN(c2c(Cl)cn[nH]c2=O)CC1=O | 10 to 500 | 10 to 500
20 | Cc1cc(C(F)(F)F)ccc1CN1CCN(c2cn[nH]c(=O)c2Cl)CC1=O | 1 to 5 | 10 to 500
21 | O=C1CN(c2c(Br)n[nH]c(=O)c2Cl)CCN1Cc1ccccc1C(F)(F)F | 1 to 5 | 5 to 10
22 | O=C1CN(c2c(Cl)cn[nH]c2=O)CCN1Cc1ccc(OC(F)(F)F)cc1 | 10 to 500 | 10 to 500
23 | O=C1CN(c2cn[nH]c(=O)c2Cl)CCN1Cc1cccc2[nH]ncc12 | 10 to 500 | 10 to 500
24 | Cc1cc(F)ccc1CN1CCN(c2c(Br)n[nH]c(=O)c2Cl)CC1=O | 10 to 500 | 10 to 500
25 | Cc1cc(F)ccc1CN1CCN(c2cn[nH]c(=O)c2C(F)(F)F)CC1=O | 5 to 10 | 5 to 10
26 | O=C1CN(c2c(Cl)cn[nH]c2=O)CCN1Cc1cccc(C(F)(F)F)c1 | 10 to 500 | 10 to 500
27 | Cc1cc(F)ccc1CN1CCN(c2c(C)n[nH]c(=O)c2Cl)CC1=O | 10 to 500 | 10 to 500
28 | Cc1ccccc1CN1CCN(c2ccn[nH]c2=O)CC1=O | 10 to 500 | 10 to 500
29 | O=C1CN(c2c(Cl)cn[nH]c2=O)CCN1Cc1cccc(OC(F)(F)F)c1 | 10 to 500 | 10 to 500
30 | O=C1CN(c2cn[nH]c(=O)c2C(F)(F)F)CCN1Cc1ccccc1C(F)(F)F | 1 to 5 | 1 to 5
31 | O=C1N(Cc2ccccc2C(F)(F)F)CCC12CCN(c1cn[nH]c(=O)c1Cl)CC2 | 10 to 500 | 10 to 500
